These results are taken from ChEMBL document CHEMBL3137667, “[Drug-induced liver injury; fourteenth updated edition of the bibliographic database of liver injuries and related drugs]” (Gastroenterol Clin Biol, 2004).

SMILES strings stand for the structures.

For series [1] the following is noted: human.
The conditions of series [2]: human. This is another data set of the same source.
For series [3] the following is noted: human, serum.
For series [4] the following is noted: human. This is another data set of the same source.
A short description of series [5]: Highest frequency of moderate liver toxicity observed during clinical trials, expressed as a percentage. [column '% BIOL' in source]. To be noted: human.
The nature of series [6]: Proposed mechanism(s) of liver damage. [column 'MEC' in source]. Conditions: human.
The conditions of series [7]: human. This is another data set of the same source.
For series [8] the following is noted: human. The source holds these as a separate data set.
For series [9] the following is noted: human. This is another data set of the same source.
The conditions of series [10]: human, serum. The source holds these as a separate data set.
The conditions of series [11]: human, serum, 4383 h.
For series [12] the following is noted: human. This is another data set of the same source.
For series [13] the following is noted: human. This is another data set of the same source.
The nature of series [14]: Times to onset, minimal and maximal, observed in the indexed observations. [column 'DELAI' in source]. To be noted: human.
A short description of series [15]: Highest frequency of acute liver toxicity observed during clinical trials, expressed as a percentage. [column '% AIGUE' in source]. To be noted: human.
For series [16] the following is noted: human. This is another data set of the same source.
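For Hepatotoxicity (association with vascular disease) in this document: count of indexed literature references reporting vascular liver injury in humans, e.g. peliosis hepatitis, hepatic veno-occlusive disease or Budd-Chiari syndrome.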
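For Hepatotoxicity (benign tumour) in this document: value is a count of indexed literature references citing a benign tumour confirmed by histopathology.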
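For Hepatotoxicity (choleostasis) in this document: human cholestatic liver injury, shown by histopathology or by peak ALT or AST elevation over alkaline phosphatase ratio below 2, value counts indexed literature reports.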
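For Hepatotoxicity (chronic liver disease) in this document: chronic liver injury confirmed by histopathology or persistently raised serum aminotransferase activity beyond 6 months, value given as the count of indexed literature references.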
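For Hepatotoxicity (cirrhosis) in this document: value is a count of indexed literature references reporting cirrhosis confirmed by histopathology.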
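For Hepatotoxicity (cytolytic) in this document: human cytolytic liver injury, shown by histopathology or by a ratio above 5 of peak ALT or AST elevation to alkaline phosphatase elevation, value counts indexed references.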
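For Hepatotoxicity (granulomatous hepatitis) in this document: value is a count of indexed literature references reporting granulomatous liver disease confirmed by histopathology.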
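For Hepatotoxicity (malignant tumour) in this document: malignant tumour confirmed by histopathology, value gives the count of indexed literature references reporting it.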
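For Hepatotoxicity (severe hepatitis) in this document: human clinical data: severe hepatitis, meaning potentially life-threatening liver failure or clinically observed cases, the value counts how many indexed literature references report it.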
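For Hepatotoxicity (steatosis) in this document: steatosis confirmed by histopathology, value is the count of indexed references.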

In the case of `C[C@@H]1C[C@H]2[C@@H]3CCC4=CC(=O)C=C[C@]4(C)C3=CC[C@]2(C)[C@H]1C(=O)CN1CCN(c2cc(N3CCCC3)nc(N3CCCC3)n2)CC1` [TIRILAZAD], the “Hepatotoxicity (cytolytic)” value in series [1] is listed as 0. The “Hepatotoxicity (benign tumour)” value in [2] was 0. The “Hepatotoxicity (acute)” value in [3] is 0; in [15] it was 0%. In addition, the “Hepatotoxicity (malignant tumour)” value in series [4] was 0. Besides, the “Hepatotoxicity (moderate)” value in [5] was 8.5%; in series [10], 2. Besides, in series [6], the “Hepatotoxicity (mechanism)” value was “Dose-dependant”. In addition, in series [7], the “Hepatotoxicity (granulomatous hepatitis)” value came to 0. For the same molecule, the “Hepatotoxicity (severe hepatitis)” value in series [8] is recorded as 0. In addition, the “Hepatotoxicity (cirrhosis)” value in series [9] amounted to 0. Also, in [11], the “Hepatotoxicity (chronic liver disease)” value amounted to 0. Also, the “Hepatotoxicity (association with vascular disease)” value in series [12] is given as 0. Also, the “Hepatotoxicity (choleostasis)” value in series [13] was found to be 0. Further, the “Hepatotoxicity (time to onset)” value in series [14] worked out at 3 days - 10 days. Further, the “Hepatotoxicity (steatosis)” value in series [16] is on record as 0.
`Cc1cc(CC(=O)O)n(C)c1C(=O)c1ccc(Cl)cc1` [ZOMEPIRAC]: the “Hepatotoxicity (cytolytic)” value in series [1] came to 0. Further, the “Hepatotoxicity (benign tumour)” value in series [2] is 0. Also, the “Hepatotoxicity (acute)” value stood at 0 in series [3] and 0% in [15]. Besides, the “Hepatotoxicity (malignant tumour)” value in [4] came out at 0. In addition, the entries for the “Hepatotoxicity (moderate)” value in series [5] and in [10] were 1.7% and 2, respectively. In addition, the “Hepatotoxicity (mechanism)” value in [6] is given as “Allergic”. In series [7], the “Hepatotoxicity (granulomatous hepatitis)” value is recorded as 0. In addition, in series [8], the “Hepatotoxicity (severe hepatitis)” value was found to be 0. For the same molecule, the “Hepatotoxicity (cirrhosis)” value in [9] is 0. Also, the “Hepatotoxicity (chronic liver disease)” value in series [11] was determined as 0. Besides, in [12], the “Hepatotoxicity (association with vascular disease)” value is given as 0. Further, the “Hepatotoxicity (choleostasis)” value in series [13] is on record as 0. For the same molecule, the “Hepatotoxicity (time to onset)” value in series [14] turned out to be 2 weeks. In series [16], the “Hepatotoxicity (steatosis)” value was 0.
Turning to `CC(C)[C@H](N)C(=O)OCCOCn1cnc2c(=O)[nH]c(N)nc21` [VALACYCLOVIR], in series [1], the “Hepatotoxicity (cytolytic)” value is 1. Also, in series [2], the “Hepatotoxicity (benign tumour)” value is given as 0. For the same molecule, the “Hepatotoxicity (acute)” value in series [3] was 1; in series [15], 0%. Further, the “Hepatotoxicity (malignant tumour)” value in series [4] is 0. The “Hepatotoxicity (moderate)” value in series [5] was determined as 17.6%; in series [10] it was 2. In [6], the “Hepatotoxicity (mechanism)” value was “Dose-dependant”. The “Hepatotoxicity (granulomatous hepatitis)” value in series [7] is reported as 0. For the same molecule, the “Hepatotoxicity (severe hepatitis)” value in series [8] was 0. Further, in series [9], the “Hepatotoxicity (cirrhosis)” value was found to be 0. Besides, the “Hepatotoxicity (chronic liver disease)” value in series [11] worked out at 0. Also, the “Hepatotoxicity (association with vascular disease)” value in series [12] is recorded as 0. Besides, the “Hepatotoxicity (choleostasis)” value in series [13] was determined as 1. In series [14], the “Hepatotoxicity (time to onset)” value was determined as 10 days. For the same molecule, in series [16], the “Hepatotoxicity (steatosis)” value was 0.
With `CNC=O`, the “Hepatotoxicity (cytolytic)” value in [1] stood at 1. Further, in series [2], the “Hepatotoxicity (benign tumour)” value turned out to be 0. Moreover, the “Hepatotoxicity (acute)” value in series [3] is 4; in series [15], 0%. In series [4], the “Hepatotoxicity (malignant tumour)” value was determined as 0. For the same molecule, the “Hepatotoxicity (moderate)” value came to 75% in series [5] and 13 in [10]. Further, the “Hepatotoxicity (mechanism)” value in series [6] is listed as “Dose-dependant”. Further, the “Hepatotoxicity (granulomatous hepatitis)” value in [7] is 0. The “Hepatotoxicity (severe hepatitis)” value in series [8] is 2. Besides, the “Hepatotoxicity (cirrhosis)” value in [9] came out at 0. The “Hepatotoxicity (chronic liver disease)” value in series [11] is 0. For the same molecule, the “Hepatotoxicity (association with vascular disease)” value in [12] was determined as 0. Also, in series [13], the “Hepatotoxicity (choleostasis)” value is reported as 0. The “Hepatotoxicity (time to onset)” value in series [14] is on record as 3 days - 1 week. Further, the “Hepatotoxicity (steatosis)” value in series [16] amounted to 0.
For the molecule `Nc1ccc(S(N)(=O)=O)cc1` [SULFANILAMIDE], the “Hepatotoxicity (cytolytic)” value in [1] is given as 5. Further, in series [2], the “Hepatotoxicity (benign tumour)” value was 0. The “Hepatotoxicity (acute)” value came out at 5 in [3] and 0% in series [15]. Further, the “Hepatotoxicity (malignant tumour)” value in [4] stood at 0. Also, the “Hepatotoxicity (moderate)” value in series [5] is given as 0%; in series [10] it was 0. Also, the “Hepatotoxicity (mechanism)” value in [6] is on record as “Allergic”. The “Hepatotoxicity (granulomatous hepatitis)” value in [7] is 0. For the same molecule, the “Hepatotoxicity (severe hepatitis)” value in [8] came out at 5. The “Hepatotoxicity (cirrhosis)” value in [9] amounted to 0. Besides, the “Hepatotoxicity (chronic liver disease)” value in series [11] is reported as 0. Further, the “Hepatotoxicity (association with vascular disease)” value in [12] turned out to be 0. The “Hepatotoxicity (choleostasis)” value in [13] was 1. For the same molecule, the “Hepatotoxicity (time to onset)” value in series [14] was found to be 2 weeks - 3 months. In addition, the “Hepatotoxicity (steatosis)” value in series [16] is 1.
Turning to `COc1ccc(C(CN(C)C)C2(O)CCCCC2)cc1` (stereo not drawn) [VENLAFAXINE], in [1], the “Hepatotoxicity (cytolytic)” value amounted to 3. Further, the “Hepatotoxicity (benign tumour)” value in [2] is recorded as 0. For the same molecule, the “Hepatotoxicity (acute)” value was 4 in series [3] and 0% in series [15]. Further, the “Hepatotoxicity (malignant tumour)” value in series [4] worked out at 0. Also, the entries for the “Hepatotoxicity (moderate)” value in series [5] and in series [10] were 2.8% and 3, respectively. Moreover, the “Hepatotoxicity (mechanism)” value in series [6] was “Allergic”. Besides, the “Hepatotoxicity (granulomatous hepatitis)” value in series [7] was 0. In series [8], the “Hepatotoxicity (severe hepatitis)” value is listed as 0. For the same molecule, the “Hepatotoxicity (cirrhosis)” value in series [9] came to 0. The “Hepatotoxicity (chronic liver disease)” value in [11] was found to be 0. Moreover, in [12], the “Hepatotoxicity (association with vascular disease)” value came to 0. Also, the “Hepatotoxicity (choleostasis)” value in [13] stood at 1. The “Hepatotoxicity (time to onset)” value in series [14] amounted to 12 days - 6 months. The “Hepatotoxicity (steatosis)” value in series [16] turned out to be 0.
On to `CCC(C)n1ncn(-c2ccc(N3CCN(c4ccc(OC[C@H]5CO[C@](Cn6cncn6)(c6ccc(F)cc6F)O5)cc4)CC3)cc2)c1=O` (stereo partly drawn) [SAPERCONAZOLE], for which, in [1], the “Hepatotoxicity (cytolytic)” value was 0. For the same molecule, the “Hepatotoxicity (benign tumour)” value in series [2] was 0. For the same molecule, the “Hepatotoxicity (acute)” value in series [3] turned out to be 0; in series [15], 0%. In [4], the “Hepatotoxicity (malignant tumour)” value is 0. For the same molecule, the figures for the “Hepatotoxicity (moderate)” value in [5] and in series [10] were 0% and 1, respectively. Besides, in series [6], the “Hepatotoxicity (mechanism)” value was “Dose-dependant”. Also, the “Hepatotoxicity (granulomatous hepatitis)” value in [7] is 0. In [8], the “Hepatotoxicity (severe hepatitis)” value worked out at 0. Besides, the “Hepatotoxicity (cirrhosis)” value in [9] came to 0. Also, the “Hepatotoxicity (chronic liver disease)” value in [11] is given as 0. Also, in series [12], the “Hepatotoxicity (association with vascular disease)” value was found to be 0. For the same molecule, in series [13], the “Hepatotoxicity (choleostasis)” value turned out to be 0. For the same molecule, the “Hepatotoxicity (time to onset)” value in [14] is on record as 8 weeks. Moreover, the “Hepatotoxicity (steatosis)” value in series [16] came out at 0.
In the case of `CC1=C(C(=O)O)N2C(=O)[C@@H](NC(=O)[C@H](N)c3ccccc3)[C@H]2SC1` [CEPHALEXIN ANHYDROUS], the “Hepatotoxicity (cytolytic)” value in series [1] came out at 3. Moreover, in [2], the “Hepatotoxicity (benign tumour)” value was determined as 0. Moreover, the “Hepatotoxicity (acute)” value in series [3] turned out to be 6; in [15] it was 0%. The “Hepatotoxicity (malignant tumour)” value in [4] worked out at 0. Moreover, the “Hepatotoxicity (moderate)” value turned out to be 4.8% in series [5] and 4 in [10]. Further, the “Hepatotoxicity (mechanism)” value in series [6] was “Allergic”. The “Hepatotoxicity (granulomatous hepatitis)” value in series [7] was found to be 1. In addition, the “Hepatotoxicity (severe hepatitis)” value in [8] amounted to 2. For the same molecule, the “Hepatotoxicity (cirrhosis)” value in series [9] is on record as 0. The “Hepatotoxicity (chronic liver disease)” value in [11] came to 0. In addition, in series [12], the “Hepatotoxicity (association with vascular disease)” value worked out at 0. The “Hepatotoxicity (choleostasis)” value in series [13] came out at 4. Moreover, the “Hepatotoxicity (time to onset)” value in series [14] amounted to 1 week - 9 days. Further, in series [16], the “Hepatotoxicity (steatosis)” value came to 0.
